Data published in patent publication US6806230B1, “Pyrimidine derivatives and herbicides containing them” (Kumiai Chemical Industry Co., Ltd., priority 1999, dated 2004).

tested on: green foxtail (Se); assay: Test Example 2: herbicidal effects by upland soil treatment; format: in vivo; details: dose 100 g active ingredient per 10 ares, examined on the 21st day after treatment, standards of Table 44;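 also: 0-5 growth inhibition grade; 5 = over 90%; 4 = 70-90%; 3 = 50-70%; 2 = 30-50%; 1 = 10-30%; 0 = under 10%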
Protocol: In a 80 cm^2 plastic pot, upland soil was filled, and seeds of barnyard grass (Ec) and green foxtail (Se) were sown and covered with soil. A wettable powder prepared in accordance with Formulation Example 1 was diluted with water and uniformly applied to the soil surface by means of a small size spray at a rate of 100 l per 10 ares, so that the dose of the active ingredient would be 100 g per 10 ares. Thereafter, cultivation was carried out in a green house, and on the 21st day after the treatment, the herbicidal effects were examined in accordance with the standards as identified in Table 44.

SMILES | herbicidal effects, Se (green foxtail)
COc1ccc(CC(=O)N(C)C(c2cncnc2C(F)(F)Cl)C(C)C)cc1 (racemic) [Compound 1-16] | 5
CC(C)C(c1cncnc1C(F)(F)F)N(C)C(=O)Cc1cc(F)ccc1F (racemic) [Compound 1-40] | 4
Cc1ccc(CC(=O)N(C)C(c2cncnc2C(F)F)C(C)C)cc1 (racemic) [Compound 1-166] | 5
CC(C)C(c1cncnc1C(F)(F)F)N(C)C(=O)Cc1ccc(F)cc1F (racemic) [Compound 1-147] | 5
CC(C)C(c1cncnc1C(F)(F)F)N(C)C(=O)Cc1c(F)cccc1F (racemic) [Compound 1-123] | 5
Cc1ccc(CC(=O)N(C)C(c2ccc(C)cc2)c2cncnc2C(F)(F)F)cc1 (racemic) [1-228] | 5

tested on: barnyard grass (Eo); assay: Test Example 1: herbicidal effects by flooded paddy field treatment; format: in vivo; parameters: herbicidal effects, Eo (barnyard grass):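 0-5 growth inhibition grade; 5 = over 90%; 4 = 70-90%; 3 = 50-70%; 2 = 30-50%; 1 = 10-30%; 0 = under 10%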; details: dose 100 g active ingredient per 10 ares, examined on the 21st day after treatment, standards of Table 44;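 as to Herbicidal effect index, Eo: 0-5 growth inhibition grade; 5 = over 90%; 4 = 70-90%; 3 = 50-70%; 2 = 30-50%; 1 = 10-30%; 0 = under 10%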
Method in brief: (§1)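 Seeds sown in puddled paddy soil and flooded to 3 cm. Next day, a water-diluted wettable powder was dripped onto the water surface at 100 g active ingredient per 10 ares. Plants were grown in a greenhouse, and herbicidal effect was scored against a rating standard 21 days after treatment.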

SMILES | herbicidal effects, Eo (barnyard grass)
Cc1ccc(CC(=O)N(C)C(c2cncnc2C(F)F)C(C)C)cc1 (racemic) [Compound 1-166] | 5
CC(C)C(c1cncnc1C(F)(F)F)N(C)C(=O)Cc1ccc(F)cc1F (racemic) [Compound 1-147] | 5
Cc1ccc(CC(=O)N(C)C(c2ccc(C)cc2)c2cncnc2C(F)(F)F)cc1 (racemic) [1-228] | 5

same assay, conditions: dose 100 gai/10a, examined on 21st day after treatment, index 0-5 per Table 44

SMILES | Herbicidal effect index, Eo
COc1ccc(CC(=O)N(C)C(c2cncnc2C(F)(F)Cl)C(C)C)cc1 (racemic) [Compound 1-16] | 5
CC(C)C(c1cncnc1C(F)(F)F)N(C)C(=O)Cc1cc(F)ccc1F (racemic) [Compound 1-40] | 5
CC(C)C(c1cncnc1C(F)(F)F)N(C)C(=O)Cc1c(F)cccc1F (racemic) [Compound 1-123] | 5

tested on: rice (Or); assay: Test Example 4: selectivity for a crop plant by flooded paddy field treatment; format: in vivo; parameters: scale not given here; details: rice transplanted at second leaf stage, dose 25 g active ingredient per 10 ares, examined on the 21st day after treatment
Method in brief: (§2)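 Paddled paddy soil in pots sown with barnyard grass and monochoria, with second-leaf-stage rice transplanted, under 3 cm of water. Next day a diluted wettable powder was dripped onto the water at 25 g active ingredient per 10 ares; effects scored on a rating scale 21 days later in a greenhouse.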

Or (effect on crop plant rice, index) | SMILES
1 | COc1ccc(CC(=O)N(C)C(c2cncnc2C(F)(F)Cl)C(C)C)cc1 (racemic) [Compound 1-16]
0 | CC(C)C(c1cncnc1C(F)(F)F)N(C)C(=O)Cc1cc(F)ccc1F (racemic) [Compound 1-40]

same assay, conditions: rice transplanted at second leaf stage, dose 25 gai/10a, 21st day after treatment, index per Table 44

SMILES | Or (herbicidal effect index on crop)
Cc1ccc(CC(=O)N(C)C(c2cncnc2C(F)F)C(C)C)cc1 (racemic) [Compound 1-166] | 1
CC(C)C(c1cncnc1C(F)(F)F)N(C)C(=O)Cc1ccc(F)cc1F (racemic) [Compound 1-147] | 1
CC(C)C(c1cncnc1C(F)(F)F)N(C)C(=O)Cc1c(F)cccc1F (racemic) [Compound 1-123] | 1
Cc1ccc(CC(=O)N(C)C(c2ccc(C)cc2)c2cncnc2C(F)(F)F)cc1 (racemic) [1-228] | 0

tested on: monochoria (Mo); assay: as above; format: in vivo; parameters: scale not given here; details: dose 25 g active ingredient per 10 ares, examined on the 21st day after treatment
Method in brief: as §2

SMILES | Mo (herbicidal effects, index)
COc1ccc(CC(=O)N(C)C(c2cncnc2C(F)(F)Cl)C(C)C)cc1 (racemic) [Compound 1-16] | 5
CC(C)C(c1cncnc1C(F)(F)F)N(C)C(=O)Cc1cc(F)ccc1F (racemic) [Compound 1-40] | 5

same assay, conditions: monochoria, dose 25 gai/10a, 21st day after treatment, index per Table 44

SMILES | Mo (herbicidal effect index)
Cc1ccc(CC(=O)N(C)C(c2cncnc2C(F)F)C(C)C)cc1 (racemic) [Compound 1-166] | 5
CC(C)C(c1cncnc1C(F)(F)F)N(C)C(=O)Cc1ccc(F)cc1F (racemic) [Compound 1-147] | 5
CC(C)C(c1cncnc1C(F)(F)F)N(C)C(=O)Cc1c(F)cccc1F (racemic) [Compound 1-123] | 5
Cc1ccc(CC(=O)N(C)C(c2ccc(C)cc2)c2cncnc2C(F)(F)F)cc1 (racemic) [1-228] | 5

tested on: barnyard grass (Eo); assay: as above; format: in vivo; parameters: scale not given here; details: barnyard grass, dose 25 gai/10a, 21st day after treatment, index per Table 44
Method in brief: as §2

SMILES | Eo (herbicidal effect index)
Cc1ccc(CC(=O)N(C)C(c2cncnc2C(F)F)C(C)C)cc1 (racemic) [Compound 1-166] | 5
CC(C)C(c1cncnc1C(F)(F)F)N(C)C(=O)Cc1ccc(F)cc1F (racemic) [Compound 1-147] | 5
CC(C)C(c1cncnc1C(F)(F)F)N(C)C(=O)Cc1c(F)cccc1F (racemic) [Compound 1-123] | 5
Cc1ccc(CC(=O)N(C)C(c2ccc(C)cc2)c2cncnc2C(F)(F)F)cc1 (racemic) [1-228] | 5

same assay, conditions: dose 25 g active ingredient per 10 ares, examined on the 21st day after treatment

SMILES | Eo (herbicidal effects, index)
COc1ccc(CC(=O)N(C)C(c2cncnc2C(F)(F)Cl)C(C)C)cc1 (racemic) [Compound 1-16] | 5
CC(C)C(c1cncnc1C(F)(F)F)N(C)C(=O)Cc1cc(F)ccc1F (racemic) [Compound 1-40] | 5

tested on: barnyard grass (Ec); assay: Test Example 2: herbicidal effects by upland soil treatment; format: in vivo; parameters: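 0-5 growth inhibition grade; 5 = over 90%; 4 = 70-90%; 3 = 50-70%; 2 = 30-50%; 1 = 10-30%; 0 = under 10%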; details: dose 100 g active ingredient per 10 ares, examined on the 21st day after treatment, standards of Table 44
Method in brief: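 Pre-emergence test: barnyard grass and green foxtail sown in upland soil, then soil surface sprayed with wettable-powder formulation at 100 g active ingredient per 10 ares (100 l per 10 ares). Grown in greenhouse; herbicidal effect scored on a rating scale 21 days after treatment.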

SMILES | herbicidal effects, Ec (barnyard grass)
COc1ccc(CC(=O)N(C)C(c2cncnc2C(F)(F)Cl)C(C)C)cc1 (racemic) [Compound 1-16] | 4
CC(C)C(c1cncnc1C(F)(F)F)N(C)C(=O)Cc1cc(F)ccc1F (racemic) [Compound 1-40] | 5
Cc1ccc(CC(=O)N(C)C(c2cncnc2C(F)F)C(C)C)cc1 (racemic) [Compound 1-166] | 5
CC(C)C(c1cncnc1C(F)(F)F)N(C)C(=O)Cc1ccc(F)cc1F (racemic) [Compound 1-147] | 5
CC(C)C(c1cncnc1C(F)(F)F)N(C)C(=O)Cc1c(F)cccc1F (racemic) [Compound 1-123] | 5
Cc1ccc(CC(=O)N(C)C(c2ccc(C)cc2)c2cncnc2C(F)(F)F)cc1 (racemic) [1-228] | 5

tested on: monochoria (Mo); assay: Test Example 1: herbicidal effects by flooded paddy field treatment; format: in vivo; parameters: herbicidal effects, Mo (monochoria):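 0-5 growth inhibition grade; 5 = over 90%; 4 = 70-90%; 3 = 50-70%; 2 = 30-50%; 1 = 10-30%; 0 = under 10%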; details: dose 100 g active ingredient per 10 ares, examined on the 21st day after treatment, standards of Table 44;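 as to Herbicidal effect index, Mo: 0-5 growth inhibition grade; 5 = over 90%; 4 = 70-90%; 3 = 50-70%; 2 = 30-50%; 1 = 10-30%; 0 = under 10%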
Method in brief: as §1

SMILES | herbicidal effects, Mo (monochoria)
Cc1ccc(CC(=O)N(C)C(c2cncnc2C(F)F)C(C)C)cc1 (racemic) [Compound 1-166] | 5
CC(C)C(c1cncnc1C(F)(F)F)N(C)C(=O)Cc1ccc(F)cc1F (racemic) [Compound 1-147] | 5
Cc1ccc(CC(=O)N(C)C(c2ccc(C)cc2)c2cncnc2C(F)(F)F)cc1 (racemic) [1-228] | 5

same assay, conditions: dose 100 gai/10a, examined on 21st day after treatment, index 0-5 per Table 44

SMILES | Herbicidal effect index, Mo
COc1ccc(CC(=O)N(C)C(c2cncnc2C(F)(F)Cl)C(C)C)cc1 (racemic) [Compound 1-16] | 5
CC(C)C(c1cncnc1C(F)(F)F)N(C)C(=O)Cc1cc(F)ccc1F (racemic) [Compound 1-40] | 5
CC(C)C(c1cncnc1C(F)(F)F)N(C)C(=O)Cc1c(F)cccc1F (racemic) [Compound 1-123] | 5
